Tests used:
Type in all cases: functional
Bombyx mori [1] = assay: Induction of precocious metamorphosis-inducing activity against fourth-instar larvae of Bombyx mori Shunrei x shogetsu at >80 ug treated topically
Bombyx mori [2] = assay: Induction of precocious metamorphosis-inducing activity against fourth-instar larvae of Bombyx mori Shunrei x shogetsu compound treated topically
Bombyx mori [3] = assay: Induction of precocious metamorphosis-inducing activity against fourth-instar larvae of Bombyx mori Shunrei x shogetsu at >160 ug treated topically
Bombyx mori [4] = assay: Induction of precocious metamorphosis-inducing activity against fourth-instar larvae of Bombyx mori Shunrei x shogetsu at 40 ug treated topically
Bombyx mori [5] = assay: Induction of precocious metamorphosis-inducing activity against fourth-instar larvae of Bombyx mori Shunrei x shogetsu at 40 ug treated topically in presence of 0.01 ug tebufenozide
Bombyx mori [6] = assay: Induction of precocious metamorphosis-inducing activity against fourth-instar larvae of Bombyx mori Shunrei x shogetsu at 40 ug treated topically in presence of 10 ug methoprene
Bombyx mori [7] = assay: Induction of precocious metamorphosis-inducing activity against fourth-instar larvae of Bombyx mori Shunrei x shogetsu at >40 ug treated topically

| SMILES | Activity (Bombyx mori [1]) [%] | ED50 (Bombyx mori [2]) [µg] | also measured |
| --- | --- | --- | --- |
| CCCCOc1ccc(-n2ccnc2)cc1 | 0 | >80 |  |
| CC(C)(C)c1ccc(OCCCn2ccnc2)cc1 | 20 | >80 |  |
| CCc1ccc(OCCn2ccnc2)cc1 |  | >160 | Activity (Bombyx mori [3]): 11% |
| c1ccc(OCCCn2ccnc2)cc1 | 0 | >80 |  |
| CCc1cccc(OCCCn2ccnc2)c1 |  | 36 |  |
| c1ccc(Oc2ccc(OCCCn3ccnc3)cc2)cc1 | 0 | >80 |  |
| c1ccc(COc2ccc(OCCCn3ccnc3)cc2)cc1 |  | >160 | Activity (Bombyx mori [3]): 0% |
| CCCCCCOc1ccc(OCCCn2ccnc2)cc1 |  | 36 |  |
| CCCCOc1ccc(OCCCn2ccnc2)cc1 |  | 27 |  |
| CCC(C)c1ccc(OCCCn2ccnc2)cc1 (stereo not given) |  | 91 |  |
| CCCc1ccc(OCCCn2ccnc2)cc1 |  | 16 | Activity (Bombyx mori [4]): 100%; Activity (Bombyx mori [5]): 0%; Activity (Bombyx mori [6]): 0% |
| Clc1ccc(OCCCn2ccnc2)cc1 | 11 | >80 |  |
| CCc1ccccc1OCCCn1ccnc1 | 0 | >80 |  |
| CCc1ccc(OCCCCn2ccnc2)cc1 |  | >160 | Activity (Bombyx mori [3]): 20% |
| CCc1ccc(OCCCn2ccnc2)cc1 |  | 17 |  |
| CCCCCCCCCCOc1ccc(-n2ccnc2)cc1 | 33 | >80 |  |
| CCCCCCOc1ccc(-n2ccnc2)cc1 |  | 63 |  |
| CCCCCCCCOc1ccc(-n2ccnc2)cc1 |  | 40 |  |
| CC(C)=CCCC(C)CCn1ccnc1 (stereo not given) |  | >40 | Activity (Bombyx mori [7]): 20% |
| CCCCCCCCn1ccnc1 |  | >40 | Activity (Bombyx mori [7]): 0% |
| CCCCCCCCCCCCn1ccnc1 |  | 15 | Activity (Bombyx mori [4]): 100%; Activity (Bombyx mori [5]): 0%; Activity (Bombyx mori [6]): 0% |
| c1ccc(CCn2ccnc2)cc1 | 0 | >80 |  |
| CCCCCCCCCCn1ccnc1 |  | 18 |  |
| CCCCCCCCCCCCCCn1ccnc1 |  | 30 |  |
| c1ccc(Cn2ccnc2)cc1 [BENZYLIMIDAZOLE] | 0 | >80 |  |

Source: ChEMBL document CHEMBL3046881, “Precocious Metamorphosis-Inducing Activity of 1-Substituted Imidazoles” (1996)
